Assay [1] relates to mononuclear bone marrow cells from VDR knock-out (VDR-KO) mice. In words: Colony-forming assay in methylcellulose, VDR knock-out mice. The conditions noted are these: 10^−8 M. In kind it is cell-based. An excerpt:
In FIG. 6D, colony formation by mononuclear bone marrow cells from VDR knock-out (VDR-KO) and wild type (WT) mice is shown. Mononuclear cells were obtained from femoral bone marrow plugs and grown in methylcellulose culture media with either paricalcitol (10^−8M) or diluant. Colonies were counted on day 10 of culture. The number of total colonies (average) were 87 (control) and 66 (paricalcitol 10^−8M) in wild type mice, and 110 (control) and 122 (paricalcitol 10^−8M) in VDR-KO mice. The percentage of macrophage, granulocyte and mixed granulocyte/macrophage colonies are shown. Triplicate wells for each mouse and a total of three KO and three WT mice were studied. G, granulocyte colonies; G/M mixed granulocyte/macrophage colonies; M, macrophage colonies.
The VDR KO Mouse and Colony-Forming Assay was performed as follows. VDR KO mice were generated and genotypes were determined by Southern Blot Analysis as described previously (O'Kelly et al., supra, 2002). For experiments using VDR KO mice, their wild-type (WT) littermates were used as controls. Mice were killed by cervical neck dislocation. Bone marrow was flushed out of isolated femurs with (a-MEM; Gibco BRL, Grand Island, N.Y., USA) including 10% FCS using a 26-gauge needle. Isolated spleens were injected with DMEM (Gibco BRL) plus 10% FCS and crushed with forceps to release cells. Mononuclear cells from bone marrow or spleen were separated by Ficoll-Hypaque density centrifugation (Amersham Pharmacia, Uppsala, Sweden). Resuspended mononuclear bone marrow cells (2×10^4 cells/ml) and growth factors were added 1:10 to methylcellulose medium M3234 (StemCell Technologies Inc., Vancouver, British Columbia, Canada) to yield a final concentration of 1% methylcellulose, 30% FCS, 1% BSA, 10^-4M mercaptoethanol, and 2 mM L-glutamine as described previously (19). Cells were plated in six-well plates in a volume of 1 ml and incubated at 37° C. in a humidified atmosphere containing 5% CO2. Colonies were counted after 2 weeks. Colony type was established by morphology; and to ensure accurate determination, representative colonies were plucked from the plates, centrifuged onto slides, stained with Wright-Giemsa stain and examined by light microscopy.

The test system of assay [2] is THP-1 myeloid leukemia cells. The experiment in a line: MTT assay. The settings on record: 4 day exposure. In kind it is cell-based, human.
A further assay has as its system NCI-H929 cells. In words: Western blot of cell lysates. In kind it is cell-based, human. The method, then:
Western blot analysis was used to determine the levels of proteins involved in cell cycle and differentiation. […] After centrifugation at 15,000×g for 15 min at 4° C., the suspension was collected. Protein concentrations were quantitated using the Bio-Rad assay (Bio-Rad Labolatories, Hercules, Calif.). […] The blots were developed using the Supersignal West Pico Chemiluminescent Substrate Kit (Pierce, Rockford, Ill.). In FIG. 3C, NCI-H929 cells were treated with either paricalcitol (10^−7M) or 1,25(OH)2D3 (10^−7M) and cell lysates were prepared after 72 hrs. Cell lysates were used for Western blot analysis and probed sequentially with antibodies to p27KIP1, Bcl-2 and Bax. Control cells were treated with vehicle alone. Amount of protein was normalized by comparison to the amount of GAPDH. […] The Bcl-2 and Bax antibodies were obtained from Santa Cruz Biotechnology Inc., Santa Cruz, Calif.
Background: In western blotting, separated proteins are transferred to a membrane and probed.

For assay [3], the system named is U937 cells expressing PML-RARA (PR9). The experiment in a line: CD14 expression by flow cytometry, PR9 cells with zinc. In kind it is cell-based, human. The settings on record: paricalcitol 0.01 μM; 3 days; compared to PR9 without zinc. The method, then:
(A) NB-4 myeloid leukemia cell lines were treated with paricalcitol (0.1 μM) and/or arsenic trioxide (0.6 μM) for 3 days. Control cells were treated with vehicle alone. Cell lysates were made and used for Western blot which was probed sequentially with antibodies to RARA to detect the fusion protein PML-RARα. (B) U937 cells were stably transfected with either the control MT vector (U937-PMT) or the PML-RARα cDNA under the control of the Zn2^+-inducible murine metallothionein 1 promoter (PR9). Cells were treated either with (+) or without (−) Zn for 2 days. Paricalcitol and/or arsenic trioxide of the indicated doses were added to the cells. Cell lysates were harvested and used for Western blot which was probed with antibodies to RARα to detect PML-RARα fusion protein ([…]). (C) U937-PMT and PR9 cells were treated either with or without Zn and with paricalcitol, and/or arsenic trioxide as indicated for 3 days, and CD14 expression was measured by flow cytometry.
Cell lines used in this study were obtained from American Type Culture Collection (Rockville, Md.) and were maintained according to their recommendations. Myeloid leukemia cell lines (HL-60, NB-4, THP-1, U937), lymphoma cell lines (Raji, Ramos, Daudi, Jurkat, Jeko-1, JUDHL), myeloma cell lines (RPMI-8226, ARH-77, NCI-H929), ovarian cancer cell lines and PC-3 prostate cell line were grown in RPMI 1640 with 10% FCS. […]

`C[C@H](/C=C/[C@H](C)C(C)(C)O)[C@H]1CC[C@H]2/C(=C/C=C3C[C@@H](O)C[C@H](O)C3)CCC[C@]12C` [paricalcitol, 19-nor-1,25, (OH)2D3]: the “number of total colonies (average)” value in assay [1] (VDR knock out mice, control 110) is given as 122. In assay [1] (VDR knock-out mice, control 13±3%), the “percentage of granulocyte colonies” value is recorded as 13±4%. Moreover, the “percentage of macrophage colonies” value in assay [1] (VDR knock-out mice, control 30±8%) stood at 25±5%. In addition, in assay [1] (VDR knock-out mice, control 56±10%), the “percentage of mixed colonies” value is given as 61±8%. In addition, the “antiproliferative effect by MTT assay” value in assay [2] is “sensitive”. Further, the “expression of Bcl-2 and p27^KIP1” value with NCI-H929 cells (0.01 μM each, 3 days) is “down-regulated”. In the assay on NCI-H929 cells (10^−7M, 72 hrs), the “decrease of Bcl-2 protein level” value is given as “about 40%” and the “effect on levels of Bax” value is “did not affect”. Further, in the assay with NCI-H929 cells (10^−7M, 96 hrs), the “effect on levels of p21WAF1” value was “little effect” and the “increase of p27KIP1 expression” value is reported as “about 3 fold”. Besides, the “differentiation (CD14) of PR9 cells cultured with zinc” value in assay [3] is “partially blocked”.
